Experimental data published in patent publication US4861774A, “Method of treating tumors using tetracyclo compounds” (priority 1984, dated 1989).
Converted amounts (≈) assume the structure as drawn.

What was measured:
[1] = test system: L1210 Leukemia; experiment: L1210 Leukemia ascitic tumor in mice (Test 5); format: in vivo, mice (BDF1 or CDF1); settings: 10.0 mg/kg i.p., days 1-9, BDF1 mice
Excerpt: L1210 Leukemia (1×10^5 cells), maintained i.p. by serial passage in female DBA/2 mice, was implanted i.p. to female BDF1 or CDF1 mice on day 0, and the test compounds or vehicle were given i.p. to the mice once a day on days 1-9.
(§1) Ten mice were used for each test group, and twenty mice were used for each vehicle-treated control group.
(§2) Drug efficacy against the ascitic tumors is expressed as percentage of the median (mean) survival time of the test group to that of the control group. [formula] .circle.2 Results

[2] = Acute toxicity in ddY mice (Test 3); settings: mouse, in vivo
[3] = test system: EL4 Lymphoma; experiment: EL4 Lymphoma in mice (Test 6); format: in vivo, mice (BDF1); settings: 10.0 mg/kg i.p., days 1, 5 and 9; median survival time
Excerpt: EL4 Lymphoma (1×10^6 cells), maintained i.p. by serial passage in female C57BL/6 mice, was implanted i.p. to female BDF1 mice on day 0, and the test compounds or vehicle were given i.p. to the mice once a day on days 1, 5 and 9.
(§3) Ten mice were used for each test group and twenty mice were used for each vehicle-treated control group.
(§4) Drug efficacy against the ascitic tumors is expressed as percentage of the median survival time of the test group to that of the control group. [formula]

[4] = test system: Human MX-1 mammary; experiment: Human MX-1 mammary tumor in nude mice (Test 9); format: in vivo, human (in BALB/c nu/nu mice); settings: 10.0 mg/kg i.v., days 11, 15 & 19; evaluation day 27
Method: Human LX-1 lung or MX-1 mammary (each fragment, 2×2×2 mm), maintained s.c. by serial passage in male BALB/c nu/nu mice, was implanted s.c. to male BALB/c nu/nu mice on day 0, and the test compounds or vehicle were given i.v. to the mice once a day on specified days in Table 9.
(§5) Tumor weight was calculated as follows: (Tumor length and width were measured by caliper.)
(§6) Tumor weight (mg)=1/2×a×b^2, where a represents length and b represents width (mm).
Tumor weights (initial) and (last) were calculated on the first injection day (just before dosing) and on day 21, 27 or 28 (the last evaluation day), respectively.
Five mice were used for each test group and 5 or 10 mice were used for each vehicle-treated control group.
(§7) Drug efficacy was expressed as percentage of mean tumor weight of the test group to that of the control group. [formula]

[5] = test system: Human LC-6-JCK lung carcinoma; experiment: Human LC-6-JCK lung carcinoma in nude mice (Test 10); format: in vivo, human (in BALB/c nu/nu mice); settings: 10.0 mg/kg i.v., days 12, 16 and 20; evaluation day 28
Method: Human LC-6-JCK lung or SC-6-JCK stomach (each fragment, 2×2×2 mm), maintained s.c. by serial passage in male BALB/c nu/nu mice, was implanted s.c. to male BALB/c nu/nu mice on day 0, and the test compounds were given i.v. to the mice once a day on days 12, 16 and 20.
as §5, §6
Tumor weights (initial) and (last) were calculated on the first injection day (just before dosing) and on day 28 (the last evaluation day), respectively.
Five mice were used for each test group and four or five mice were used for each vehicle-treated control.
as §7

[6] = test system: Bacillus subtilis ATCC 6633; experiment: Antimicrobial activity, serial broth dilution (Test 2), Bacillus subtilis; format: cell-based; settings: ATCC6633, overnight incubation at 37° C.
Method: (§8) Antimicrobial activity of the FR-900482 substance against some bacteria was determined by a serial broth dilution method in bouillon media for bacteria. Minimum inhibitory concentrations (MIC) were expressed in terms of μg/ml after overnight incubation at 37° C.

[7] = test system: Lymphocytic leukemia P388; experiment: Antitumor activity against lymphocytic leukemia P388 in mice (Test 1); format: in vivo, mice (BDF1); settings: for T/C: mean survival time treated/control
Method: The antitumor activity of FR-900482 substance was determined in experimental tumor system in mice.
Lymphocytic leukemia P388 was implanted intraperitoneally into BDF1 mice at an inoculum size of 1×10^6 cells per mouse. Twenty-four hours after the implantation of tumor cells, graded doses of the FR-900482 substance were administered to mice intraperitoneally. Treatments were once a day on day 1, 2, 3 and 4 after the tumor inoculation. Control animals received intraperitoneal doses of physiological saline solution. The injection volume was 0.2 ml in all experiments. Six mice were used for each experimental group.
Antitumor activity was evaluated by the mean survival time of a group of mice and also expressed by the T/C % value (mean survival time of treated group/mean survival time of control group, ×100).

[8] = test system: Ehrlich carcinoma; experiment: Ehrlich carcinoma in mice (Test 6); format: in vivo, mice (ICR); settings: 3.2 mg/kg i.p., days 1, 5 and 9; median survival time
Excerpt: Ehrlich carcinoma (1×10^6 cells), maintained i.p. by serial passage in female ICR mice, implanted i.p. to female ICR mice on day 0, and the test compounds or vehicle were given i.p. to the mice once a day on days 1, 5 and 9.
as §3, §4

[9] = test system: AMC60 Fibrosarcoma; experiment: in vivo rat ascitic tumor model, AMC60 Fibrosarcoma (Test 8); design: species or system rats (ACI/N); settings: 3.2 mg/kg i.p., days 1, 5 and 9; median survival time
Excerpt: AMC60 Fibrosarcoma (1×10^6 cells), maintained i.p. by serial passage in female ACI/N rats, was implanted i.p. to female ACI/N rats on day 0, and the test compounds or vehicle were given i.p. to the rats once a day on days 1, 5 and 9. Seven rats were used for each test group or vehicle-treated control group.
as §4

[10] = test system: B16 Melanoma; experiment: B16 Melanoma in mice (Test 5); format: in vivo, mice (BDF1); settings: 10.0 mg/kg i.p., days 1-9
Method: B16 Melanoma (1:10 brei, 0.5 ml), maintained s.c. by serial passage in female C57BL/6 mice, was implanted i.p. to female BDF1 mice on day 0, and the test compounds or vehicle were given i.p. to the mice once a day on days 1-9.
as §1, §2

[11] = Existence as mixture or single component by NMR spectra or silica gel TLC with chromatoscanner; format: physicochemical
[12] = test system: Pseudomonas aeruginosa NCTC-10490; experiment: Antimicrobial activity, serial broth dilution (Test 2), Pseudomonas aeruginosa; format: cell-based; settings: NCTC10490, overnight incubation at 37° C.
Method: as §8

[13] = test system: AH130 Hepatoma; experiment: in vivo rat ascitic tumor model, AH130 Hepatoma (Test 8); design: species or system rats (Donryu); settings: 1.0 mg/kg i.p., days 1, 5 and 9; median survival time
Excerpt: AH130 Hepatoma (1×10^6 cells), maintained i.p. by serial passage in female Donryu rats, was implanted i.p. to female Donryu rats on day 0, and the test compounds or vehicle were given i.p. to the rats once a day on days 1, 5 and 9. Ten rats were used for each test group or vehicle-treated control group.
as §4

NC(=O)OCC1c2c(O)cc(C=O)cc2N2CC3NC3C1(O)O2 (centres unmarked) [FR-900482 substance, 4-Formyl-6,9-dihydroxy-14-oxa-1,11-diazatetracyclo[7.4.1.0^2,7.0^10,12]tetradeca-2,4,6-trien-8-ylmethyl carbamate]
T/C [1]: > 190%
LD50 ([2]; ip, intraperitoneal injection): 32 mg/kg
LD50 ([2]; intravenous injection): 32 mg/kg
T/C [3]: 169%
1-T"/C" [4]: 100%
1-T"/C" [5]: 100%
MIC [6]: 50 µg/mL (≈ 156 µM)
Mean Survival time ([7]; 1.0 mg/kg i.p., days 1-4): 13.0 days
T/C ([7]; 1.0 mg/kg i.p., days 1-4): 118%
Mean Survival time ([7]; 3.2 mg/kg i.p., days 1-4): 14.0 days
T/C ([7]; 3.2 mg/kg i.p., days 1-4): 127%
Mean Survival time ([7]; 5.6 mg/kg i.p., days 1-4): 16.0 days
T/C ([7]; 5.6 mg/kg i.p., days 1-4): 145%
Mean Survival time ([7]; 10 mg/kg i.p., days 1-4): 24.5 days
T/C ([7]; 10 mg/kg i.p., days 1-4): 223%
Mean Survival time ([7]; 18 mg/kg i.p., days 1-4): 29.0 days
T/C ([7]; 18 mg/kg i.p., days 1-4): 264%
increase in life span in mice ([7]; doses between 3.2-18 mg/kg i.p.): significant increase in life span
activity against the leukemia P388 ([7]; i.p., days 1-4): quite active
T/C [8]: > 270%
T/C [9]: > 333%
T/C [10]: 350%
existence as mixture or single component ([11]; around neutral condition): mixture of two components
existence as mixture or single component ([11]; around pH 1 condition): single component
MIC [12]: 25 µg/mL (≈ 77.8 µM)
T/C [13]: > 429%
